For this assay, the system named is phospho-Tau. Briefly: Phospho-Tau assay using cultured rat cortical neurons (okadaic acid insult). It counts as cell-based. To be noted: pretreatment, 30 nM okadaic acid, rat cortical cultures, FIG. 14 and 15B. The protocol: Phospho-Tau Assay Using Cultured Rat Cortical Neurons. Primary cortical cell cultures were prepared as described previously.^2 Briefly, pregnant Sprague Dawley dams were euthanized at embryonic day 18 (E18), and the cortices of the pups were harvested. Cells were plated on poly-d-lysine coated plates at 15,000 cells per well. Cultures were maintained at 37° C. under an atmosphere containing 5% CO2. Plating media consisted of 10% heat-inactivated fetal bovine serum (FBS; Fisher) 1% penicillin-streptomycin (Fisher), and 0.5 mM glutamine (Life Technologies) in Neurobasal (Fisher). After 16-24 h, media was exchanged for replacement media consisting of IX B27 supplement (Fisher), 1% penicillin-streptomycin, 0.5 mM glutamine, and 12.5 μM glutamate in Neurobasal. On DIV6 and DIV13, 50% of media was removed, and feeding media containing 1×B27 supplement, 1% penicillin-streptomycin, 0.5 mM glutamine in Neurobasal was added with an additional 20% volume added to account for evaporation. On DIV14, the volume of each well was adjusted to 180 μL. Next, 1000× solutions of compounds in DMSO were diluted 1:100 into Neurobasal and 20 μL of the resulting solutions was added to the appropriate wells (total dilution=1:1000, 0.1% DMSO). For wells that were not treated with compounds, DMSO was diluted 1:100 into Neurobasal and 20 μL of the resulting solution was added to the appropriate wells. All treatments were randomized. After 24 h, 20 μL was removed from each well. […] After 1 h, neurons were fixed by removing 80% of the media and replacing it with a volume of 4% aqueous paraformaldehyde (ThermoFisher) equal to 50% of the working volume of the well. Then, the cells were incubated at room temperature for 15 min before the fixative was aspirated and each well was washed twice with DPBS. Cells were permeabilized using 0.2% Triton X-100 (ThermoFisher) in DPBS for 15 min at room temperature without shaking. Plates were blocked with blocking buffer (2% bovine serum albumin and […] in DPBS) overnight at 4° C. Then, plates were incubated overnight at 4° C. with gentle shaking in antibody dilution buffer (ADB) (1% bovine serum albumin and […] in DBPS) containing a chicken anti-MAP2 antibody (1:10,000; EnCor, CPCA-MAP2), guinea pig anti-Tau antibody (1:1000; Synaptic Systems), mouse anti-phosphoTau (Ser202/Thr205) antibody (1:1000; Invitrogen), and rabbit anti-phosphoTau (Ser396) antibody (1:1000; Invitrogen). Plates were washed twice with DPBS and once with ADB before being incubated for 1 h at room temperature in ADB containing an anti-chicken IgY secondary antibody conjugated to Alexa Fluor™ Plus 800 (1:1000; Invitrogen), an anti-mouse IgG secondary antibody conjugated to Alexa Fluor™ Plus 680 (1:1000; Invitrogen), an anti-guinea pig IgG secondary antibody conjugated to Alexa Fluor™ 596 (1:1000; Invitrogen), and an anti-rabbit IgG secondary antibody conjugated to Alexa Fluor™ Plus 488 (1:1000; Invitrogen). Plates were washed three times with DBPS, and after the final wash, 100 μL of DPBS was added per well before imaging on a CellInsight™ CX7 High Content Analysis imager at 20× with 12 ROIs taken per well with no bias to location and no overlap of the ROIs. Images were analyzed using Cellnomics Scan software (version 6.6.2). The compartmental analysis assay was used to measure the average intensity of each channel per field and determine the reported intensity ratios.

SMILES strings stand for the structures.

For the compound `CN(C)CCn1ccc2ccccc21` [isoDMT, reference compound], the “hyperphosphorylation of Tau (pTau accumulation) induced by okadaic acid” value is recorded as “does not”.

The record behind these values is patent publication US20260284018A1, “DUAL INHIBITORS OF DYRK1A AND 5-HT2 FOR TREATING A BRAIN DISORDER” (THE REGENTS OF THE UNIVERSITY OF CALIFORNIA, priority 2023, published 2026).
